Here are results for nine compounds from DBAASP.

Test systems include Aspergillus fumigatus; Botrytis cinerea; Pseudomonas aeruginosa; Proteus vulgaris; Streptococcus pyogenes; Escherichia coli; Salmonella typhimurium; Bacillus subtilis; Candida albicans.
Holding throughout (experiment): ≥ marks a high value that may be exact or a test limit, other limits are often not marked, values filed in µg/mL are converted to µM
The subject of test [1] is Proteus mirabilis ATCC 25933.
For test [2], the system named is Klebsiella pneumoniae KK3 9904.
Test [3] relates to Staphylococcus epidermidis RP62A.
The test system of test [4] is Escherichia coli ATCC 25922.
In test [5] the test system is Enterobacter cloacae HNTCC 53001.
Test [6] concerns Candida albicans ATCC 90028.
Test [7] has as its system Staphylococcus aureus NCTC 8325.
The test system of test [8] is Enterococcus faecalis ATCC 29212.
Test [9] deals with Pseudomonas aeruginosa ATCC 27853.
The test system of test [10] is Streptococcus mutans GS-5.
Test [11] concerns Streptococcus gordonii ATCC 10558.
Test [12] has as its system Streptococcus sanguinis ATCC 49295.
In test [13] the test system is Escherichia coli ATCC 11775.
The test system of test [14] is Candida albicans ATCC 10231.
Test [15] relates to Staphylococcus aureus ATCC 12600.
Test [16] concerns Pseudomonas aeruginosa ATCC 9027.
The test system of test [17] is Escherichia coli ATCC 2592.
Test [18] concerns Micrococcus luteus ATCC 9341.
Test [19] has as its system Candida albicans ATCC 36232.
Test [20] concerns Erwinia amylovora PMV 6076.
Test [21] has as its system Xanthomonas campestris pv. Vesicatoria 2133-2.
Test [22] has as its system Pseudomonas syringae pv. syringae EPS 94.
The test system of test [23] is Staphylococcus epidermidis.
Test [24] relates to Enterobacter cloacae ATCC 13047.
Test [25] concerns Klebsiella pneumoniae ATCC 700603.

Converted amounts (≈) assume the structure as drawn.

On to `CC[C@H](C)[C@H](NC(=O)CNC(=O)[C@H](CCC(N)=O)NC(=O)[C@H](Cc1ccccc1)NC(=O)[C@@H](NC(=O)[C@H](CCCCN)NC(=O)[C@H](CCCCN)NC(=O)[C@H](CC(C)C)NC(=O)[C@H](C)NC(=O)[C@H](CCCCN)NC(=O)[C@H](CC(C)C)NC(=O)CN)C(C)C)C(=O)N[C@@H](Cc1cnc[nH]1)C(=O)N[C@@H](CCCCN)C(=O)N[C@@H](C)C(=O)N[C@H](C(=O)N[C@@H](CCCCN)C(=O)N[C@@H](CC(C)C)C(=O)N[C@H](C(=O)N[C@@H](CC(N)=O)C(=O)N[C@@H](CC(N)=O)C(=O)N[C@@H](Cc1cnc[nH]1)C(=O)N[C@H](C(=O)N[C@@H](CCC(N)=O)C(=O)O)C(C)C)[C@@H](C)CC)[C@@H](C)CC` [GLKALKKVFQGIHKAIKLINNHVQ], for which the MIC (commonly the least concentration at which growth counts as inhibited) in test [1] is at least 80 µM; in test [2], 5 µM (≈ 13.5 µg/mL); in [3] it was 20 µM (≈ 54 µg/mL); in [4], 5 µM (≈ 13.5 µg/mL); in [5], 10 µM (≈ 27 µg/mL); in [6] it was at least 80 µM. The MIC in test [7] is at least 40 µM; in [8], above 80 µM; in test [9] it was 10 µM (≈ 27 µg/mL).

In the case of `CC(C)[C@H](NC(=O)[C@H](CO)NC(=O)[C@H](CCCN=C(N)N)NC(=O)[C@H](CCCN=C(N)N)NC(=O)[C@H](CCCN=C(N)N)NC(=O)[C@H](CCCN=C(N)N)NC(=O)CN)C(=O)N[C@@H](CCC(N)=O)C(=O)N[C@@H](Cc1c[nH]c2ccccc12)C(=O)N[C@@H](CS)C(=O)N[C@@H](C)C(=O)O` [GRRRRSVQWCA], the MIC is at least 34.9 µM in test [10]; 18.2 µM (≈ 25 µg/mL) in test [4]; 5 µM (≈ 6.87 µg/mL) in the test on Aspergillus fumigatus; at least 46.6 µM in test [11]; at least 101 µM in [12]; 72.8 µM (≈ 100 µg/mL) in test [8].

As to `CC[C@H](C)[C@H](NC(=O)[C@H](CC(=O)O)NC(=O)[C@@H](NC(=O)[C@@H](NC(=O)CN)C(C)C)C(C)C)C(=O)N[C@@H](CC(C)C)C(=O)N[C@@H](CCCCN)C(=O)NCC(=O)N[C@@H](C)C(=O)N[C@@H](C)C(=O)N[C@@H](CCCCN)C(=O)N[C@@H](CC(=O)O)C(=O)N[C@@H](CC(C)C)C(=O)N[C@@H](C)C(=O)NCC(=O)N[C@@H](Cc1c[nH]cn1)C(=O)N[C@@H](CC(C)C)C(=O)N[C@@H](C)C(=O)N[C@H](C(=O)N[C@@H](CCCCN)C(=O)N[C@H](C(=O)N[C@@H](CCSC)C(=O)N[C@@H](CC(N)=O)C(=O)N[C@@H](CCCCN)C(=O)N[C@@H](CC(C)C)C(N)=O)C(C)C)[C@@H](C)O` [GVVDILKGAAKDLAGHLATKVMNKL], the MIC in [1] is at least 200 µM; in [2], at least 100 µM; in test [3], at least 200 µM; in test [4], 50 µM (≈ 128 µg/mL); in test [5] it was at least 50 µM; in test [6], at least 200 µM. The minimal inhibitory concentration (MIC) in test [7] is at least 200 µM; in test [8], above 200 µM; in test [9], 100 µM (≈ 256 µg/mL).

Turning to `CC[C@H](C)[C@H](N)C(=O)N[C@@H](CC(N)=O)C(=O)N1CCC[C@H]1C(=O)N[C@@H](CCCCN)C(=O)N[C@@H](CO)C(=O)N[C@H](C(=O)N[C@@H](CCC(N)=O)C(=O)N[C@@H](CO)C(=O)N[C@@H](CC(C)C)C(=O)N[C@@H](CC(C)C)C(N)=O)C(C)C` [INPKSVQSLL], the MIC was at least 200 µM in test [13], above 200 µM in test [14], at least 200 µM in test [15] and at least 200 µM against Botrytis cinerea.

In the case of `CC(C)C[C@H](NC(=O)[C@H](CS)NC(=O)[C@H](Cc1cnc[nH]1)NC(=O)[C@H](C)NC(=O)[C@H](C)NC(=O)[C@H](CS)NC(=O)[C@H](C)NC(=O)[C@H](C)NC(=O)[C@@H](N)CCCCN)C(=O)N[C@@H](Cc1c[nH]c2ccccc12)C(=O)N[C@@H](CCCN=C(N)N)C(N)=O` [KAACAAHCLWR], the MIC is above 163 µM in [16], at least 163 µM in test [17], at least 163 µM in [18] and at least 163 µM in test [19].

For the compound `CC[C@H](C)[C@H](NC(=O)[C@H](CCCCN)NC(=O)[C@H](CCCCN)NC(=O)[C@H](Cc1ccccc1)NC(=O)[C@H](CC(C)C)NC(=O)[C@H](CCCCN)NC(=O)[C@H](CCCCN)NC(=O)[C@H](CC(C)C)NC(=O)[C@H](Cc1ccc(O)cc1)NC(=O)[C@H](CCCCN)NC(=O)[C@H](CC(C)C)NC(=O)[C@@H](NC(=O)[C@H](CCCCN)NC(=O)[C@H](CCCCN)NC(=O)[C@H](Cc1ccccc1)NC(=O)[C@H](CC(C)C)NC(=O)[C@H](CCCCN)NC(=O)[C@@H](N)CCCCN)[C@@H](C)CC)C(=O)N[C@@H](CC(C)C)C(=O)N[C@@H](CCCCN)C(=O)N[C@@H](Cc1ccc(O)cc1)C(=O)N[C@@H](CC(C)C)C(=O)N[C@@H](CCCCN)C(=O)N[C@@H](CC(=O)O)C(=O)N[C@@H](CCC(=O)O)C(=O)N[C@@H](CC(C)C)C(=O)O` [KKLFKKILKYLKKLFKKILKYLKDEL], the MIC in test [20], in test [21] and in test [22] was 14.1 µM (≈ 46.8 µg/mL) throughout.

As to `CC(C)C[C@H](NC(=O)[C@H](CCCN=C(N)N)NC(=O)[C@@H]1CCCN1C(=O)[C@H](Cc1cnc[nH]1)NC(=O)[C@@H]1CCCN1C(=O)[C@@H]1CCCN1C(=O)[C@H](CCCN=C(N)N)NC(=O)[C@@H]1CCCN1C(=O)[C@@H]1CCCN1C(=O)[C@H](Cc1cnc[nH]1)NC(=O)[C@@H]1CCCN1C(=O)[C@@H]1CCCN1C(=O)[C@H](CCCN=C(N)N)NC(=O)[C@@H]1CCCN1C(=O)[C@@H]1CCCN1C(=O)[C@H](Cc1cnc[nH]1)NC(=O)[C@@H]1CCCN1C(=O)[C@@H]1CCCN1C(=O)[C@H](CCCN=C(N)N)NC(=O)[C@@H]1CCCN1)C(=O)O` [PRPPHPPRPPHPPRPPHPRL], the MIC with Pseudomonas aeruginosa is 16 µM (≈ 37.3 µg/mL); in test [23], at least 64 µM; in the test on Proteus vulgaris, 2 µM (≈ 4.67 µg/mL); in the test with Streptococcus pyogenes, at least 64 µM; against Escherichia coli, 0.5 µM (≈ 1.17 µg/mL); against Salmonella typhimurium it was 0.5 µM (≈ 1.17 µg/mL). Besides, the MIC in the test with Bacillus subtilis is at least 64 µM.

Take `CC(C)C[C@H](NC(=O)[C@H](Cc1ccccc1)NC(=O)[C@@H]1CCCN1C(=O)[C@H](Cc1c[nH]c2ccccc12)NC(=O)[C@H](Cc1c[nH]c2ccccc12)NC(=O)[C@H](Cc1c[nH]c2ccccc12)NC(=O)[C@@H]1CCCN1C(=O)[C@H](Cc1ccccc1)NC(=O)[C@@H](N)CCCN=C(N)N)C(=O)N[C@@H](CCCN=C(N)N)C(=O)O` [RFPWWWPFLR]: the values for the MIC against Aspergillus fumigatus and in the test with Candida albicans were at least 335 µM and above 671 µM, respectively.

`CC[C@H](C)[C@H](NC(=O)[C@H](C)NC(=O)[C@H](CCCCN)NC(=O)[C@@H](NC(=O)[C@@H](NC(=O)[C@@H](N)C(C)C)[C@@H](C)CC)C(C)C)C(=O)N[C@@H](C)C(=O)N[C@H](C(=O)N[C@@H](CC(C)C)C(=O)N[C@@H](C)C(=O)N[C@@H](CO)C(=O)N[C@@H](CCCCN)C(=O)N[C@@H](CC(C)C)C(=O)N[C@@H](CC(C)C)C(=O)O)[C@@H](C)O` [VIVKAIATLASKLL]: the MIC in [6] was 27.8 µM (≈ 40 µg/mL); in test [24] it was at least 55.6 µM; in test [25], 55.6 µM (≈ 80 µg/mL).
